Measurements reported in patent US20090143396A1, “Sulfonyl-Substituted Aryl Compounds as Modulators of Peroxisome Proliferator Activated Receptors” (priority 2005, published 2009).
pEC50: −log10 of the molar value.

Tests used:
Assay type in all cases: cell-based, murine and human
Details in all cases: GAL4 chimeric receptor, 20-24 hours treatment
PPAR-alpha = biological target: T1, PPAR-alpha (UniProt Q07869); assay: Transient transfection transactivation assay in CV-1 cells, GAL4-PPAR-alpha LBD chimera, luciferase reporter
T1 sequence (Q07869 1-468): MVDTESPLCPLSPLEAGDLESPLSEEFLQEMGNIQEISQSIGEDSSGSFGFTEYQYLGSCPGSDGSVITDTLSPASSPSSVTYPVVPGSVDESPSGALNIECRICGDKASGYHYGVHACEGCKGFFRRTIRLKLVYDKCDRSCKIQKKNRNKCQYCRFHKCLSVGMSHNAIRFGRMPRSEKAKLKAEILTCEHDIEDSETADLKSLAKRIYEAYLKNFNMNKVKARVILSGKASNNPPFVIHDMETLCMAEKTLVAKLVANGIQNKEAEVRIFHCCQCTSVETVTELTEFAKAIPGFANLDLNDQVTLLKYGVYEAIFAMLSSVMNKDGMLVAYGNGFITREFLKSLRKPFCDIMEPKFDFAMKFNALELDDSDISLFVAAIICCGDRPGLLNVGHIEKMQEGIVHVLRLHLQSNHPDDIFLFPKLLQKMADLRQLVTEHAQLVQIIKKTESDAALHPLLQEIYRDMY
Description: (§1) Compounds may be screened for functional potency in transient transfection assays in CV-1 cells for their ability to activate the PPAR subtypes (transactivation assay). A previously established chimeric receptor system was utilized to allow comparison of the relative transcriptional activity of the receptor subtypes on the same synthetic response element and to prevent endogenous receptor activation from complicating the interpretation of results. See, for example, Lehmann, J. M.; Moore, L. B.; Smith-Oliver, T. A; Wilkinson, W. O.; Willson, T. M.; Kliewer, S. A., An antidiabetic thiazolidinedione is a high affinity ligand for peroxisome proliferator-activated receptor […], J. Biol. Chem., 1995, 270, 12953-6. The ligand binding domains for murine and human PPAR-alpha, PPAR-gamma, and PPAR-delta are each fused to the yeast transcription factor GAL4 DNA binding domain. CV-1 cells were transiently transfected with expression vectors for the respective PPAR chimera along with a reporter construct containing four or five copies of the GAL4 DNA binding site driving expression of luciferase. After 8-16 h, the cells are replated into multi-well assay plates and the media is exchanged to phenol-red free DME medium supplemented with 5% delipidated calf serum. 4 hours after replating, cells were treated with either compounds or 1% DMSO for 20-24 hours. Luciferase activity was then assayed with Britelite (Perkin Elmer) following the manufacturer's protocol and measured with either the Perl in Elmer Viewlux or Molecular Devices Acquest (see, for example, Kliewer, S. A., et. al. Cell 1995, 83, 813-819). Rosiglitazone is used as a positive control in the […] assay. Wy-14643 and GW7647 is used as a positive control in the […] assay. GW501516 is used as the positive control in the PPARδ assay.
(§2) Compounds of Examples 1-10 were assayed to measure their biological activity with respect to their EC50 values and efficacy for modulating PPAR-alpha, PPAR-gamma, and PPAR-delta as set forth in Table 1.

PPAR-delta = biological target: T2, PPAR-delta (UniProt Q03181); assay: Transient transfection transactivation assay in CV-1 cells, GAL4-PPAR-delta LBD chimera, luciferase reporter
T2 sequence (Q03181 1-441): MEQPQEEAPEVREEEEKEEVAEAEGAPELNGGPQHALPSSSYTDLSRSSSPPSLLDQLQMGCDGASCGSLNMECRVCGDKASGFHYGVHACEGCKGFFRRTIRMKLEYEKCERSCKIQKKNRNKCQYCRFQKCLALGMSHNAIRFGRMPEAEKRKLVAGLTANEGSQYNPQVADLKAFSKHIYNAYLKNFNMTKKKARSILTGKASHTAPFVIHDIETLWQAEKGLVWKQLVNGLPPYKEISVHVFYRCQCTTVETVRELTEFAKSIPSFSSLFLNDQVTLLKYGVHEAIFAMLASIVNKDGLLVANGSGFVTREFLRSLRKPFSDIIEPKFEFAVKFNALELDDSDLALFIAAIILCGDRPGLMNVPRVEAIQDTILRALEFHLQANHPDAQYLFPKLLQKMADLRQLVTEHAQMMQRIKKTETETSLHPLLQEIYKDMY
Description: as §1, §2

PPAR-gamma = biological target: T3, PPAR-gamma (UniProt P37231); assay: Transient transfection transactivation assay in CV-1 cells, GAL4-PPAR-gamma LBD chimera, luciferase reporter
T3 sequence (P37231 1-505): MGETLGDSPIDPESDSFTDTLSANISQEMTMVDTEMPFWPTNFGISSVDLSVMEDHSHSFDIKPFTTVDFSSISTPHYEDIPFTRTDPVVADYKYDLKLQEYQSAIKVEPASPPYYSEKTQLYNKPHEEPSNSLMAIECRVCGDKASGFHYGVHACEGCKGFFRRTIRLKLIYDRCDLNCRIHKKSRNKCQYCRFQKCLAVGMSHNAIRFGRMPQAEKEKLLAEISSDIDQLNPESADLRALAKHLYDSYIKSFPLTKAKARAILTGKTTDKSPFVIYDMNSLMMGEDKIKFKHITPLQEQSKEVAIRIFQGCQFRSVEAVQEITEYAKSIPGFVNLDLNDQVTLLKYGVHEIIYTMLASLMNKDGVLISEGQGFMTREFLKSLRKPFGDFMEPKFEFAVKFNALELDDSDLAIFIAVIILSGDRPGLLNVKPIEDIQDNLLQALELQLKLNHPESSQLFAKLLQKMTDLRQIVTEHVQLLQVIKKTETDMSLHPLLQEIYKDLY
Description: as §1, §2

SMILES | pEC50 (PPAR-alpha) | pEC50 (PPAR-delta) | pEC50 (PPAR-gamma)
C#Cc1cc(CC(=O)O)cc(S(=O)(=O)N2CCN(Cc3cccc(OC(F)(F)F)c3)CC2)c1 [Example 9, 2-{3-Ethynyl-5-[4-(3-trifluoromethoxybenzyl)piperazine-1-ylsulfonyl]phenyl}acetic acid] | > 5.30 | > 5.30 | > 5.30
C#Cc1cc(CC(=O)O)cc(S(=O)(=O)N2CCN(Cc3ccc(OC(F)(F)F)cc3)CC2)c1 [Example 8, 2-{3-Ethynyl-5-[-4-(4-trifluoromethoxybenzyl)piperazine-1-ylsulfonyl]phenyl}acetic acid] | > 5.30 | > 5.30 | > 5.30
Cc1ccc(S(=O)(=O)N2CCN(Cc3ccc(OC(F)(F)F)cc3)CC2)cc1CC(=O)O [Example 3, {2-Methyl-5-[4-(4-trifluoromethoxy-benzyl)-piperazine-1-sulfonyl]-phenyl}-acetic acid] | > 5.30 | > 5.30 | > 5.30
Cc1ccc(S(=O)(=O)N2[C@H](C)CN(Cc3ccc(OC(F)(F)F)cc3)C[C@@H]2C)cc1CC(=O)O [Example 1, {5-[2,6-Dimethyl-4-(4-trifluoromethoxy-benzyl)-piperazine-1-sulfonyl]-2-methyl-phenyl}-acetic acid] | > 5.30 | > 5.30 | < 4.00
C[C@@H]1CN(Cc2ccc(OC(F)(F)F)cc2)C[C@H](C)N1S(=O)(=O)c1cccc(CC(=O)O)c1 [Example 6, {3-[2,6-Dimethyl-4-(4-trifluoromethoxy-benzyl)-piperazine-1-sulfonyl]-phenyl}-acetic acid] | 4.00 to 5.30 | > 5.30 | > 5.30
Cc1ccc(S(=O)(=O)N2CCN(Cc3ccc(C(F)(F)F)cc3)CC2)cc1CC(=O)O [Example 4, {2-Methyl-5-[4-(4-trifluoromethyl-benzyl)-piperazine-1-sulfonyl]-phenyl}-acetic acid] | > 5.30 | > 5.30 | > 5.30
Cc1cc(CC(=O)O)cc(S(=O)(=O)N2[C@H](C)CN(Cc3ccc(OC(F)(F)F)cc3)C[C@@H]2C)c1 [Example 5, {3-[2,6-Dimethyl-4-(4-trifluoromethoxy-benzyl)-piperazine-1-sulfonyl]-5-methyl-phenyl}-acetic acid] | 4.00 to 5.30 | > 5.30 | < 4.00
Cc1ccc(S(=O)(=O)N2[C@H](C)CN(Cc3ccc(C(F)(F)F)cc3)C[C@@H]2C)cc1CC(=O)O [Example 2, {5-[2,6-Dimethyl-4-(4-trifluoromethyl-benzyl)-piperazine-1-sulfonyl]-2-methyl-phenyl}-acetic acid] | > 5.30 | > 5.30 | 4.00 to 5.30
Cc1ccc(S(=O)(=O)N2[C@H](C)CN(Cc3ccc(Cl)c(Cl)c3)C[C@@H]2C)cc1CC(=O)O [Example 7, {5-[4-(3,4-Dichloro-benzyl)-2,6-dimethyl-piperazine-1-sulfonyl]-2-methyl-phenyl}-acetic acid] | > 5.30 | > 5.30 | < 4.00
Cc1ccc(S(=O)(=O)N2[C@H](C)CN(C(=O)Cc3ccc(OC(F)(F)F)cc3)C[C@@H]2C)cc1CC(=O)O [Example 10, 2-(5-((2R,6S)-2,6-dimethyl-4-(2-(4-(trifluoromethoxy)phenyl)acetyl)piperazin-1-ylsulfonyl)-2-methylphenyl)acetic acid] | < 4.00 | > 5.30 | < 4.00
